Read-outs that look alike come from different tables or passages of the source.
Target: T1, human TSHR (Homo sapiens, UniProt P16473)
T1 construct: expressed in transfected cells
Assay: Homogeneous Time Resolved Fluorescence (HTRF) cAMP assay, TSHR cell line
Assay type: cell-based
Conditions: for Maximum Activity compared to TSH: 100% activity = response of 30 mU/ml TSH, 0% = DMSO control, in %; for AC50: HTRF cAMP, TSHR cell line, 30 minute incubation; for Emax: read-out: Maximum Activity compared to TSH, 100% activity = response of 30 mU/ml TSH, 0% = DMSO control; call rule not given here

T1 sequence (P16473 21-764): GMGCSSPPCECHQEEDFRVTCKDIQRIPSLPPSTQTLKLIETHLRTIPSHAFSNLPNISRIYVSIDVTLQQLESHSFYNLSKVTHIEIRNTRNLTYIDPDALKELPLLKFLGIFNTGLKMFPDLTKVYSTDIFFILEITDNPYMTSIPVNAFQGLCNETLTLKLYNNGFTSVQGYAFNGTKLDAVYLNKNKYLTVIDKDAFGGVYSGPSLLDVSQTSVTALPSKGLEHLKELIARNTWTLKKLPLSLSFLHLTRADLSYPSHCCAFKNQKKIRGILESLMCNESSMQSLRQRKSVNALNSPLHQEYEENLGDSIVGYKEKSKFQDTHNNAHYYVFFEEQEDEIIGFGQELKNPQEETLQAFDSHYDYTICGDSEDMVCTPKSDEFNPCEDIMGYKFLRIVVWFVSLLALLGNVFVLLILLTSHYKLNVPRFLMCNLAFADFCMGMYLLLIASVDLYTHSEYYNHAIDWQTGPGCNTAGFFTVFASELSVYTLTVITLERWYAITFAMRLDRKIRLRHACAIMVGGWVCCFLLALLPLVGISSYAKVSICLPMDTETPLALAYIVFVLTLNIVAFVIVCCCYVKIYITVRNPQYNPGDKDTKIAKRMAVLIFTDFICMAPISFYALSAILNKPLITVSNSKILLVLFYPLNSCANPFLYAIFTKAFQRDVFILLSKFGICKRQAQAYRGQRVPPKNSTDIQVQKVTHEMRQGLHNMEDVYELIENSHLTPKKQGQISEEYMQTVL

SMILES	AC50 (read-out: AC50) [µM]	AC50	further results
O=C(c1ccccc1O)N(Cc1ccccc1)Cc1ccccc1 [Structure 129]	28.2	–	Maximum Activity compared to TSH: 51.77
COc1ccc(CN(Cc2ccccc2)C(=O)COC(C)=O)cc1COc1ccc(NC(C)=O)cc1 [Structure 130]	50.1	–	Maximum Activity compared to TSH: 53.70
COc1ccc(C(=O)N(Cc2ccccc2)Cc2ccccc2)c(O)c1 [Structure 131]	35.5	–	Maximum Activity compared to TSH: 99.01
COc1ccc(C2Nc3ccccc3C(=O)N2Cc2ccncc2)cc1COc1ccc(NC(C)=O)cc1 (stereo not drawn) [Structure 132]	31.6	–	Maximum Activity compared to TSH: 44.00
O=C(c1ccccc1O)N(Cc1cccs1)Cc1cccs1 [Structure 133]	31.6	–	Emax: 55.3%
COc1ccc(CNc2ccccc2C(=O)NCc2ccccc2)cc1COc1ccc(NC(C)=O)cc1 [Structure 134]	8.91	–	Maximum Activity compared to TSH: 30.50
COc1ccc(CN(Cc2ccccc2)C(=O)Nc2ccccc2)cc1COc1ccc(NC(C)=O)cc1 [Structure 135]	–	–	Maximum Activity compared to TSH: 48.07
COc1ccc(CN(Cc2ccccc2)C(=O)c2ccc(OC)cc2O)cc1 [Structure 136]	28.2	–	Maximum Activity compared to TSH: 37.00
COc1ccc(C2NC(=O)c3ccccc3N2)cc1COc1ccc(NC(C)=O)cc1 (stereo not drawn) [Structure 137]	–	inactive	–
COc1ccc(C2Nc3ccccc3C(=O)N2C2CCCC2)cc1COc1ccc(NC(C)=O)cc1 (stereo not drawn) [Structure 138]	20	–	Emax: 31.5%
COc1ccc(C2Nc3ccccc3C(=O)N2Cc2ccccc2C)cc1COc1ccc(NC(C)=O)cc1 (stereo not drawn) [Structure 139]	–	inactive	–
COc1ccc(C2Nc3ccccc3C(=O)N2Cc2ccccc2)cc1COc1ccc(Cl)cc1 (stereo not drawn) [Structure 140]	–	inactive	–
COc1ccc(C2Nc3ccccc3C(=O)N2Cc2ccco2)cc1COc1c(C)cccc1C (stereo not drawn) [Structure 141]	–	inactive	–
O=C(c1ccccc1O)N(Cc1ccccc1)Cc1cccs1 [Structure 142]	20	–	Emax: 34%
CC(C)c1ccc(C2C3=C(CC(c4ccco4)CC3=O)Nc3nc(C(F)(F)F)nn32)cc1 (stereo not drawn) [Structure 143]	–	inactive	–
CC(=O)Nc1ccc(OCc2cccc(C3Nc4ccccc4C(=O)N3Cc3ccco3)c2)cc1 (stereo not drawn) [Structure 144]	–	inactive	–
COc1ccc(CN(Cc2ccccc2)C(=O)CN2CCN(C)CC2)cc1COc1ccc(NC(C)=O)cc1 [Structure 145]	–	inactive	–
COc1ccc(C2Nc3ccccc3C(=O)N2CCCN(C)C)cc1COc1ccc(NC(C)=O)cc1 (stereo not drawn) [Structure 146]	–	inactive	–
O=C1CC(c2ccco2)CC2=C1C(c1cccnc1)n1nc(C(F)(F)F)nc1N2 (stereo not drawn) [Structure 147]	–	inactive	–
O=C1c2ccccc2NC(c2cc(Br)c3c(c2)OCO3)N1Cc1ccco1 (stereo not drawn) [Structure 148]	–	inactive	–
CC(=O)Nc1cccc(OCc2cccc(C3Nc4ccccc4C(=O)N3Cc3ccco3)c2)c1 (stereo not drawn) [Structure 149]	–	inactive	–
COc1ccc(C2Nc3ccccc3CN2Cc2ccco2)cc1COc1cccc(NC(C)=O)c1 (stereo not drawn) [Structure 150]	–	inactive	–
COc1ccc(C2Nc3ccccc3C(=O)N2Cc2ccco2)cc1COc1cccc(NC(C)=O)c1 (stereo not drawn) [Structure 151]	–	inactive	–
COc1ccc(C2Nc3ccccc3C(=O)N2Cc2ccccc2)cc1COc1ccc(F)cc1 (stereo not drawn) [Structure 152]	–	inactive	–
Nc1ccccc1C(=O)NCc1ccco1 [Structure 153]	–	inactive	–
O=C(c1ccccc1O)N(Cc1ccco1)Cc1cccs1 [Structure 154]	–	inactive	–
COc1ccc(-c2nc3ccc(NC(C)=O)cc3c(=O)n2Cc2cccc(Cl)c2)cc1COc1ccc(NC(C)=O)cc1 [Structure 155]	12.6	–	Maximum Activity compared to TSH: 25.50
COc1ccc(C2Nc3ccccc3C(=O)N2Cc2ccco2)cc1 (stereo not drawn) [Structure 156]	–	inactive	–
O=C1c2ccccc2NC(c2ccccc2O)N1Cc1ccccc1 (stereo not drawn) [Structure 157]	–	inactive	–

Source: patent publication US9458141B2, “Low molecular weight thyroid stimulating hormone receptor (TSHR) agonists” (The United States of America, as represented by the …, priority 2008, dated 2016)
